# Measured values: US12410179B2, “Modulators of TNF alpha activity and uses thereof” (RayThera, Inc., priority 2023, dated 2025)
# pIC50: −log10 of the molar value. Read-outs that look alike come from different tables or passages of the source.
# How the values were obtained:
# TNFα = TNFα (Homo sapiens, UniProt P01375); experiment: HEK-Blue hTNFα reporter assay; type: cell-based; design: purchased R&D biosystem (R&D Systems) 210-TA-020/CF; details: HEK-Blue hTNFα reporter cells; for Emax: read-out: TNFα reporter, Emax
# How it was run: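 Compounds preincubated 1 h at 37 °C with recombinant hTNFα ([…]), then added to HEK293 NF-κB-SEAP reporter cells, 10000 cells/well, 24 h at 37 °C. SEAP read by QUANTI-Blue at OD620; % inhibition versus stimulated and unstimulated controls, IC50 by 4-parameter fit.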
# [1] = Caco-2 assay (permeability); type: in vitro ADME; details: human, Caco-2, pH 7.4; for Papp A→B at 2 h, 5 μM: apical to basolateral; for efflux ratio at 2 h, 5 μM: read-out: Caco-2, ER (efflux ratio)
# Protocol: Cells were cultivated for 14-18 days in a cell culture incubator at 37° C., 5% CO2, 95% relative humidity. Cell culture medium was replaced every other day, beginning no later than 24 hours after initial plating.
# 10 mM stock solutions of test compounds were prepared in DMSO. The stock solutions of positive controls were prepared in DMSO at the concentration of 10 mM.
# 1) Medium was removed from the reservoir and each Transwell insert and replaced with prewarmed fresh culture medium.
# 2) Transepithelial electrical resistance (TEER) across the monolayer was measured using Millicell Epithelial Volt-Ohm measuring system (Millipore, USA).
# 3) The Plate was returned to the incubator once the measurement was done.
# 1) The Caco-2 plate was removed from the incubator and washed twice with pre-warmed HBSS (10 mM HEPES, pH 7.4), and then incubated at 37° C. for 30 minutes.
# The final concentration of DMSO in the incubation system was 0.5%.
# 3) To determine the rate of drug transport in the apical to basolateral direction.
# 4) To determine the rate of drug transport in the basolateral to apical direction.
# 5) The plates were incubated at 37° C. for 2 hours.
# 6) At the end of the incubation, 50 μL samples from donor sides (apical compartment for Ap→Bl flux, and basolateral compartment for Bl→Ap) and receiver sides (basolateral compartment for Ap→Bl flux, and apical compartment for Bl→Ap) were transferred to wells of a new 96-well plate, followed by the addition of 4 volume of cold methanol containing appropriate internal standards (IS). Samples were vortexed for 5 minutes and then centrifuged at 3,220 g for 40 minutes. An aliquot of 100 μL of the supernatant was mixed with an appropriate volume of ultra-pure water before LC-MS/MS analysis.
# 100 μL of the Lucifer yellow solution was added to each Transwell insert (apical compartment), followed by filling the wells in the receiver plate (basolateral compartment) with 300 μL of HBSS (10 mM HEPES, pH 7.4).
# [2] = SEAP readout, read-out: IC50 Range
# Chain of TNFα (P01375 77-233 limits assumed): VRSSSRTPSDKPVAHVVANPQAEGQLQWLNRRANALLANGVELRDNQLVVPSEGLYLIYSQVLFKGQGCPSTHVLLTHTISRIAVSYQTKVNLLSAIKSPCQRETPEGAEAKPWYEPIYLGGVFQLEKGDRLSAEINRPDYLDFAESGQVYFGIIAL
Compound,pIC50 (TNFα; [2]),further results
"CN1C(=O)c2cccc(OC(F)F)c2[C@H]2C[C@@H]1c1nc3ccc(-c4ccc(P(C)(C)=O)nc4)cc3n12 [Comp. Ex #4, reference compound]",,"Emax (TNFα): 82%; pIC50 (TNFα; read-out: TNFα reporter, IC50): 8.10; Papp A→B at 2 h, 5 μM [1]: 0.6 ×10⁻⁶ cm/s; efflux ratio at 2 h, 5 μM [1]: 47.5"
CN1C(=O)c2cccc(OC(F)F)c2[C@H]2C[C@@H]1c1nn3ccc(-c4ccc(P(C)(C)=O)nc4)cc3c12 [Example 20],> 7.60,"Emax (TNFα): 89%; pIC50 (TNFα; read-out: TNFα reporter, IC50): 8.42; Papp A→B at 2 h, 5 μM [1]: 1.7 ×10⁻⁶ cm/s; efflux ratio at 2 h, 5 μM [1]: 22.8"
"[2H]C([2H])([2H])N1C(=O)c2cccc(C)c2[C@H]2C[C@@H]1c1nn3ccc(-c4cnc(C5(N)CCC5)nc4)cc3c12 [Example 302, (7R,14R)-12-(2-(1-aminocyclobutyl)pyrimidin-5-yl)-1-methyl-6-(methyl-d3)-6,7-dihydro-7,14-methanobenzo[c]pyrido[1′,2′:1,5]pyrazolo[4,3-f]azocin-5 (14H)-one]",7.00 to 7.60,
CN1C(=O)c2cccc(C#N)c2[C@H]2C[C@@H]1c1nn3ccc(-c4ccc(P(C)(C)=O)nc4)cc3c12 [Example 303],> 7.60,
CN1C(=O)c2cccc(C3CC3)c2[C@H]2C[C@@H]1c1nn3ccc(-c4ccc(P(C)(C)=O)nc4)cc3c12 [Example 304],> 7.60,
C#Cc1cccc2c1[C@H]1C[C@H](c3nn4ccc(-c5cnc([C@]6(O)C[C@@](C)(O)C6)nc5)cc4c31)N(C)C2=O [Example 305],> 7.60,
[2H]C([2H])([2H])N1C(=O)c2cccc(C#N)c2[C@H]2C[C@@H]1c1nn3ccc(-c4cnc(C5(N)CCC5)nc4)cc3c12 [Example 306],> 7.60,
[2H]C([2H])([2H])N1C(=O)c2cccc(C#N)c2[C@H]2C[C@@H]1c1nn3cc(F)c(-c4cnc(C5(N)CCC5)nc4)cc3c12 [Example 307],7.00 to 7.60,
[2H]C([2H])([2H])N1C(=O)c2cccc(C#N)c2[C@H]2C[C@@H]1c1nn3ccc(-c4cnc([C@]5(N)C[C@@](C)(C#N)C5)nc4)cc3c12 [Example 308],> 7.60,
[2H]C([2H])([2H])N1C(=O)c2cccc(C#N)c2[C@H]2C[C@@H]1c1nn3ccc(-c4cnc([C@]5(N)C[C@@](C)(O)C5)c(F)c4)cc3c12 [Example 309],> 7.60,
[2H]C([2H])([2H])N1C(=O)c2cccc(C#N)c2[C@H]2C[C@@H]1c1nn3ccc(-c4cnc(C5(N)CCC5)nc4)nc3c12 [Example 310],7.00 to 7.60,
[2H]C([2H])([2H])N1C(=O)c2cccc(C#N)c2[C@H]2C[C@@H]1c1nn3cc(F)c(-c4cnc([C@]5(N)C[C@@](C)(C#N)C5)nc4)nc3c12 [Example 311],7.00 to 7.60,
[2H]C([2H])([2H])N1C(=O)c2cccc(C#N)c2[C@H]2C[C@@H]1c1nn3cc(F)c(-c4cnc([C@]5(N)C[C@@](C)(C#N)C5)nc4)cc3c12 [Example 312],> 7.60,
[2H]C([2H])([2H])N1C(=O)c2cccc(C3CC3)c2[C@H]2C[C@@H]1c1nn3ccc(-c4cnc(C5(N)CCC5)nc4)cc3c12 [Example 313],> 7.60,

# Further lines, with some results ahead:
pIC50 (TNFα; [2]),Compound,further results
> 7.60,"CC(=O)c1cccc2c1[C@H]1C[C@H](c3nn4ccc(-c5cnc(C6(N)CCC6)nc5)cc4c31)N(C)C2=O [Example 314, (7R,14R)-1-acetyl-12-(2-(1-aminocyclobutyl)pyrimidin-5-yl)-6-methyl-6,7-dihydro-7,14-methanobenzo[c]pyrido[1′,2′:1,5]pyrazolo[4,3-f]azocin-5 (14H)-one]",
7.00 to 7.60,"Cn1ccc(N2CC=C(c3ccn4nc5c(c4c3)[C@@H]3C[C@H]5NC(=O)c4cccc(OC(F)F)c43)CC2)n1 [Example 315, (7R,14S)-1-(difluoromethoxy)-12-(1-(1-methyl-1H-pyrazol-3-yl)-1,2,3,6-tetrahydropyridin-4-yl)-6,7-dihydro-7,14-methanobenzo[c]pyrido[1′,2′:1,5]pyrazolo[4,3-f]azocin-5 (14H)-one]",
> 7.60,"CN1C(=O)c2cccc(OC(F)F)c2[C@H]2C[C@@H]1c1nn3ccc([C@H]4CC[C@@H](OC[C@@H](O)CO)CC4)cc3c12 [Example 316, (7R,14S)-1-(difluoromethoxy)-12-((1R,4R)-4-((S)-2,3-dihydroxypropoxy)cyclohexyl)-6-methyl-6,7-dihydro-7,14-methanobenzo[c]pyrido[1′,2′:1,5]pyrazolo[4,3-f]azocin-5 (14H)-one]",
> 7.60,"CN1C(=O)c2cccc(OC(F)F)c2[C@H]2C[C@@H]1c1nn3ccc([C@H]4CC[C@@H](OC[C@H](O)CO)CC4)cc3c12 [Example 317, (7R,14S)-1-(difluoromethoxy)-12-((1S,4R)-4-((R)-2,3-dihydroxypropoxy)cyclohexyl)-6-methyl-6,7-dihydro-7,14-methanobenzo[c]pyrido[1′,2′:1,5]pyrazolo[4,3-f]azocin-5 (14H)-one]",
> 7.60,"CN1C(=O)c2ccnc(OC(F)F)c2[C@H]2C[C@@H]1c1nn3ccc(-c4cnc([C@]5(O)C[C@@](C)(O)C5)nc4)cc3c12 [Example 320, (7R,14S)-1-(difluoromethoxy)-12-(2-((1s,3R)-1,3-dihydroxy-3-methylcyclobutyl)pyrimidin-5-yl)-6-methyl-6,7-dihydro-7,14-methanopyrido[4,3-c]pyrido[1′,2′:1,5]pyrazolo[4,3-f]azocin-5 (14H)-one]",
7.00 to 7.60,"CN1C(=O)c2ccc(OC(F)F)nc2[C@H]2C[C@@H]1c1nn3ccc(-c4cnc([C@]5(O)C[C@@](C)(O)C5)nc4)cc3c12 [Example 321, 2-(difluoromethoxy)-12-(2-((1s, 3s)-1,3-dihydroxy-3-methylcyclobutyl)pyrimidin-5-yl)-6-methyl-6,7-dihydro-7,14-methanopyrido[3,2-c]pyrido[1′,2′:1,5]pyrazolo[4,3-f]azocin-5 (14H)-one]",
7.00 to 7.60,"CN1C(=O)c2c(F)ccc(OC(F)F)c2[C@H]2C[C@@H]1c1nn3ccc(-c4cnc(C5(N)CCC5)nc4)cc3c12 [Example 322, (7R,14S)-12-(2-(1-aminocyclobutyl)pyrimidin-5-yl)-1-(difluoromethoxy)-4-fluoro-6-methyl-6,7-dihydro-7,14-methanobenzo[c]pyrido[1′,2′:1,5]pyrazolo[4,3-f]azocin-5 (14H)-one]",
> 7.60,CN1C(=O)c2cccc(OC(F)F)c2[C@H]2C[C@@H]1c1nn3ccc(-c4cnc(C(C)(C)N)nc4)cc3c12 [Example 324],
> 7.60,[2H]C([2H])([2H])N1C(=O)c2cccc(OC(F)F)c2[C@H]2C[C@@H]1c1nn3ccc(-c4cnc(C(C)(C)N)c(F)c4)cc3c12 [Example 325],
> 7.60,[2H]C([2H])([2H])N1C(=O)c2cccc(OC(F)F)c2[C@H]2C[C@@H]1c1nn3ccc(-c4cnc(C(C)(C)N)c(F)c4)nc3c12 [Example 326],
> 7.60,[2H]C([2H])([2H])N1C(=O)c2cccc(OC(F)F)c2[C@H]2C[C@@H]1c1nn3ccc(-c4cnc5c(c4)CC[C@]5(C)N)cc3c12 [Example 327],
> 7.60,[2H]C([2H])([2H])N1C(=O)c2cccc(OC(F)F)c2[C@H]2C[C@@H]1c1nn3ccc(-c4cnc5c(c4)CC[C@@]5(C)N)cc3c12 [Example 328],
> 7.60,C[C@]1(O)C[C@](N)(c2ncc(-c3ccn4nc5c(c4c3)[C@@H]3C[C@H]5N(C4CC4)C(=O)c4cccc(OC(F)F)c43)cn2)C1 [Example 329],
